{"source": "patent US20110189174A1", "about": "“COMPOSITIONS AND METHODS FOR TREATING, REDUCING, AMELIORATING, ALLEVIATING, OR INHIBITING PROGRESSION OF, PATHOGENIC OCULAR NEOVASCULARIZATION” (priority 2010, published 2011)", "key": {"[1]": {"details": "intravitreal, wet AMD, cited from earlier work"}, "[2]": {"test": "Clinical ophthalmic examination in monkeys (vitreal cell scores, anterior chamber inflammation)", "type": "in vivo, cynomolgus monkeys (Macaca fascicularis)", "details": "cynomolgus monkey, in vivo", "experimental": "(§1) Once the phase Ib study was completed, and it was established that the drug suspension in oil would not interfere with either laser administration, evaluation of CNV or cause adverse effects, phase II was initiated. On days 1, and 15 both eyes of monkeys received 50 μL of Lucentis (0.5 mg/eye), vehicle (0 mg/eye), BOL-303050-X (1.5 mg/eye), BOL-303054-X (1.5 mg/eye) or BOL-303055-X (1.5 mg/eye) (Table 2). Intravitreous injection was performed for each by eye aiming towards mid-vitreous body. Dosing in the right eye was alternated for successive doses (as applicable) at approximately the 11 o'clock and 10 o'clock positions. Dosing in the left eye was alternated for successive doses (as applicable) from approximately the 1 o'clock and 2 o'clock positions.\nAnimals were examined at baseline, on days 1, 3, 7, 15, and 31 of Dosing Phase II and on the day of scheduled sacrifice (day 38). On days of dose administration the ophthalmic examination was done prior to dosing."}, "[3]": {"tested_on": "laser-induced CNV in monkeys", "test": "Laser-induced choroidal neovascularization in monkeys, fluorescein angiography lesion grading", "type": "in vivo, cynomolgus monkeys (Macaca fascicularis)", "details": "intravitreal, both eyes, days 1 and 15, 1.5 mg/eye (Lucentis 0.5 mg/eye)", "experimental": "Study was performed in three phases. In phases Ia and Ib, the behavior of the suspension in aqueous (Ia) and oil (Ib) formulations, and multiple dosing regimens as well as any adverse effect due to multiple dosing at 3 mg/eye (Ia) or 1.5 (Ib) were investigated. In phase II test articles were administered twice during the study period on days 1 and 15. Eyes were examined with an indirect ophthalmoscope and fundus camera.\nAdult male cynomolgus monkeys (Macaca fascicularis) age 2-7 years old were used to test the efficacy of BOL-303050-X, BOL-303054-X and BOL-303055-X. Lucentis® (ranibizumab) was used as historic control.\nBoth eyes of 46 monkeys were examined at baseline and then 42 animals were randomized into 5 groups. On Phase II Day 8 of Dosing, the animals were anesthetized with ketamine and dexmedetomidine and the macula of each eye of the animals in Groups 1 through […] underwent laser treatment by a retinal surgeon with a 532 nm diode green laser (OcuLight GL, IRIDEX Corp. Inc., Mountain View, Calif.) using a slit lamp delivery system and a Kaufman-Wallow (Ocular Instruments Inc, Bellevue, Wash.) plano fundus contact lens with Gonak (2.5%) as the coupling agent. Nine laser spot areas were symmetrically placed in the macula of each eye. The laser parameters included a 75 micron spot size and 0.1 second duration. The power setting used was assessed by the ability to produce a blister and a small hemorrhage. […] For areas not adjacent to the fovea, the initial power setting was 500 mW; if a second spot was placed, the power was set to 650 mW. For the area adjacent to the fovea the power settings were 400 mW (initial treatment) and 550 mW (second treatment). At the discretion of the retinal surgeon, power settings were adjusted based on observations at the time of laser. Power setting used for each spot was documented as well as number of burns per spot and whether hemorrhage occurred.\nas §1\nAnimals were anesthetized with ketamine and dexmedetomidine. A topical anesthetic (0.5% proparacaine) was instilled in each eye before dose administration. A wire speculum was used to retract the eyelids. The eyes were cleaned with a 2.5% povidone iodine solution and then rinsed with sterile saline. Each animal was dosed using 1 cc tuberculin syringes and 30 gauge needles.\nFA was performed at baseline, on days 22, 29 and 37 (approximately 14, 21 and 28 days post-laser). Digital ocular photographs were taken in conjunction with FA. The FA procedure is well known by people skilled in the art of ophthalmology.\nEvaluation of FA was done according to the following grading system for evidence of excessive permeability (fluorescein leakage) or any other abnormalities.\nGrade IV lesions are considered to be clinically significant as these most closely resemble the active forms of classical CNV seen in various human retinal disorders, including age-related macular degeneration. Comparison of the incidence of Grade IV lesions between treatment groups was evaluated.\nGrade IV lesions were analyzed using either Fisher's exact probability test (2-Tail) or Chi square test (χ2). […]"}, "[4]": {"tested_on": "human retinal endothelial cells (HREC)", "test": "Testing 7: VEGF-induced HREC proliferation (MTS assay), integrin antagonists and Lucentis alone and in combination", "type": "cell-based", "details": "Lucentis 1 ng/mL", "experimental": "HREC were first cultured overnight in a 96-well plate coated with fibronectin. The next day medium containing different agents as shown in Tables 14 and 15 was pre-incubated for 1 hour before being added into appropriate wells. The cells were cultured at 37° C., 5% CO2, and 95% humidity for another 3 days. After that, cell proliferation was estimated by the MTS assay. In the first study we used VEGF 10 ng/mL (about EC80 in study PH08169), Lucentis® 1 ng/mL (about EC25 in study PH09038) and 5 doses of BOL-303055-X. Normal IgG (1 ng/ml) was also added to groups containing no Lucentis®. All groups contained the same amount of 0.1% DMSO. In the second study, all five compounds (BOL-303049-X, BOL-303050-X, BOL-303051-X, BOL-303054-X and BOL-303055-X) were tested at 1 nM with other conditions remaining the same.\nA 96-well plate was coated with human fibronectin (10 μg/mL) for 5 hours at 37° C. HREC were washed with HBSS buffer once, tripsinized and re-suspended in 10% FBS CS-C medium at 18,000 cells/mL. Cells (200 μL) were added to the plate and cultured overnight at 37° C., 5% CO2, and 95% humidity. Next day, the cells were serum-starved for 2 hours.\nFor study I, VEGF at 10 ng/mL, Lucentis® at 1 ng/mL and BOL-303055-X at 0.1, 0.3, 1, 3 and 10 nM were prepared in 1% FBS CS medium as shown in Table 14. Normal IgG (1 ng/mL) were added to groups containing no Lucentis®. All medium solutions were incubated for 1 hour at 37° C. After carefully medium was aspirated, 200 μL of the medium containing different agents were then added into appropriate wells. The cells were cultured for another 3 days. For the study II as shown in the Table 15, five compounds were tested at 1 nM with other conditions remaining the same as study I.\nAt the end of incubation, the medium was carefully aspirated from cells and 120 μl of MTS working solution was added into all wells including blank wells (without cells). The plates were incubated at 37° C., 5% CO2, and 95% humidity for 1 hour and then read by a plate reader at 490 nm wavelength.\nMedian optical density (OD) was generated from different groups. Data were expressed as mean±SEM of the OD values. Statistical analysis was performed using three-way ANOVA after Box-Cox transformations, and p<0.05 was considered statistically significant. To evaluate whether the effects of the combinations were either synergistic or additive, net inhibitions were calculated by subtracting the basal levels in the presence of VEGF from the individual treatments (Lucentis® and Integrin blockers) and the combinations. […] Data analysis was performed utilizing the statistical analysis software JMP (SAS Institute, Cary, N.C.)."}}, "data": [{"substance": "ranibizumab [Lucentis, reference compound]", "values": [{"measurement": "Patients who maintained visual acuity", "setting": "[1]; at 1 year", "value": 95, "unit": "%"}, {"measurement": "Patients with improvement in vision of at least 3 lines", "setting": "[1]", "value": 40, "unit": "%"}, {"measurement": "Vitreal cell score: number of eyes with grade 4", "setting": "[2]", "value": 0}, {"measurement": "Incidence of CNV lesions, Lesion Grade I (% Total)", "setting": "[3]; Day 22", "value": "97:126 (76.98) %"}, {"measurement": "Incidence of CNV lesions, Lesion Grade II (% Total)", "setting": "[3]; Day 22", "value": "20:126 (15.87) %"}, {"measurement": "Incidence of CNV lesions, Lesion Grade III (% Total)", "setting": "[3]; Day 22", "value": "9:126 (7.14) %"}, {"measurement": "Incidence of CNV lesions, Lesion Grade IV (% Total)", "setting": "[3]; Day 22", "value": "0:126 (0) %"}, {"measurement": "Incidence of CNV lesions, Lesion Grade I (% Total)", "setting": "[3]; Day 29", "value": "96:126 (76.19) %"}, {"measurement": "Incidence of CNV lesions, Lesion Grade II (% Total)", "setting": "[3]; Day 29", "value": "22:126 (17.46) %"}, {"measurement": "Incidence of CNV lesions, Lesion Grade III (% Total)", "setting": "[3]; Day 29", "value": "8:126 (6.35) %"}, {"measurement": "Incidence of CNV lesions, Lesion Grade IV (% Total)", "setting": "[3]; Day 29", "value": "0:126 (0) %"}, {"measurement": "Incidence of CNV lesions, Lesion Grade I (% Total)", "setting": "[3]; Day 37", "value": "118:126 (93.65) %"}, {"measurement": "Incidence of CNV lesions, Lesion Grade II (% Total)", "setting": "[3]; Day 37", "value": "8:126 (6.35) %"}, {"measurement": "Incidence of CNV lesions, Lesion Grade III (% Total)", "setting": "[3]; Day 37", "value": "3:126 (1.85) %"}, {"measurement": "Incidence of CNV lesions, Lesion Grade IV (% Total)", "setting": "[3]; Day 37", "value": "0:126 (0) %"}, {"measurement": "Reduction of VEGF-induced HREC proliferation", "setting": "[4]; VEGF 10 ng/mL", "value": "15-20%"}, {"measurement": "HREC proliferation without VEGF", "setting": "[4]; basal and Lucentis-treatment conditions, BOL-303055-X 0.1-10 nM, other compounds 1 nM", "value": "did not alter HREC proliferation"}]}]}
